Assay results from the supplement of paper PMC10307832.

Columns and labels:
Test in all cases: relative viability (nuclei count vs DMSO), 5 days (fraction); higher = more cells survive
ABC-1 = tested on: ABC-1
Outline: (§1)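 Lung cancer cell lines were pin-tool dosed in 1536-well plates on the day after seeding, with either a lone drug or a fixed anchor-drug dose plus five library-drug doses (not always all listed) in √10 steps. Nuclei were counted on 4× images after 5 days. Relative viability is the ratio of treated-well to vehicle-well nuclei counts, with each value a median of duplicate plates.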

ChaGo-K-1 = tested on: ChaGo-K-1
Outline: as §1

HCC-78 = tested on: HCC-78
Outline: as §1

HOP-62 = tested on: HOP-62
Outline: as §1

LCLC-97TM1 = tested on: LCLC-97TM1
Outline: as §1

LOU-NH91 = tested on: LOU-NH91
Outline: as §1

NCI-H1355 = tested on: NCI-H1355
Outline: as §1

NCI-H1437 = tested on: NCI-H1437
Outline: as §1

NCI-H1755 = tested on: NCI-H1755
Outline: as §1

NCI-H1792 = tested on: NCI-H1792
Outline: as §1

NCI-H2009 = tested on: NCI-H2009
Outline: as §1

NCI-H2023 = tested on: NCI-H2023
Outline: as §1

NCI-H2085 = tested on: NCI-H2085
Outline: as §1

NCI-H2170 = tested on: NCI-H2170
Outline: as §1

NCI-H23 = tested on: NCI-H23
Outline: as §1

NCI-H2405 = tested on: NCI-H2405
Outline: as §1

NCI-H322M = tested on: NCI-H322M
Outline: as §1

NCI-H441 = tested on: NCI-H441
Outline: as §1

NCI-H650 = tested on: NCI-H650
Outline: as §1

NCI-H727 = tested on: NCI-H727
Outline: as §1

RERF-LC-KJ = tested on: RERF-LC-KJ
Outline: as §1

SK-MES-1 = tested on: SK-MES-1
Outline: as §1

UMC-11 = tested on: UMC-11
Outline: as §1

Structure (SMILES): Cc1cnc(-c2cnc(NCCNc3ccc(C#N)cn3)nc2-c2ccc(Cl)cc2Cl)[nH]1 + Nc1ncn([C@H]2C[C@H](O)[C@@H](CO)O2)c(=O)n1 [Decitabine] (partner 2 µM)
- relative viability (ABC-1; first compound 0.08 µM): 1.27
- relative viability (ABC-1; first compound 0.253 µM): 0.871
- relative viability (ABC-1; first compound 0.8 µM): 1.08
- relative viability (ABC-1; first compound 2.53 µM): 0.918
- relative viability (ChaGo-K-1; first compound 0.08 µM): 0.546
- relative viability (ChaGo-K-1; first compound 0.253 µM): 0.485
- relative viability (ChaGo-K-1; first compound 0.8 µM): 0.499
- relative viability (ChaGo-K-1; first compound 2.53 µM): 0.466
- relative viability (HCC-78; first compound 0.08 µM): 0.692
- relative viability (HCC-78; first compound 0.253 µM): 0.507
- relative viability (HCC-78; first compound 0.8 µM): 0.767
- relative viability (HCC-78; first compound 2.53 µM): 0.731
- relative viability (HOP-62; first compound 0.08 µM): 0.204
- relative viability (HOP-62; first compound 0.253 µM): 0.226
- relative viability (HOP-62; first compound 0.8 µM): 0.236
- relative viability (HOP-62; first compound 2.53 µM): 0.174
- relative viability (LCLC-97TM1; first compound 0.08 µM): 0.213
- relative viability (LCLC-97TM1; first compound 0.253 µM): 0.248
- relative viability (LCLC-97TM1; first compound 0.8 µM): 0.235
- relative viability (LCLC-97TM1; first compound 2.53 µM): 0.227
- relative viability (LOU-NH91; first compound 0.08 µM): 0.818
- relative viability (LOU-NH91; first compound 0.253 µM): 0.799
- relative viability (LOU-NH91; first compound 0.8 µM): 0.852
- relative viability (LOU-NH91; first compound 2.53 µM): 0.802
- relative viability (NCI-H1355; first compound 0.08 µM): 0.354
- relative viability (NCI-H1355; first compound 0.253 µM): 0.316
- relative viability (NCI-H1355; first compound 0.8 µM): 0.36
- relative viability (NCI-H1355; first compound 2.53 µM): 0.371
- relative viability (NCI-H1437; first compound 0.08 µM): 0.538
- relative viability (NCI-H1437; first compound 0.253 µM): 0.511
- relative viability (NCI-H1437; first compound 0.8 µM): 0.558
- relative viability (NCI-H1437; first compound 2.53 µM): 0.563
- relative viability (NCI-H1755; first compound 0.08 µM): 0.723
- relative viability (NCI-H1755; first compound 0.253 µM): 0.726
- relative viability (NCI-H1755; first compound 0.8 µM): 0.771
- relative viability (NCI-H1755; first compound 2.53 µM): 0.704
- relative viability (NCI-H1792; first compound 0.08 µM): 0.564
- relative viability (NCI-H1792; first compound 0.253 µM): 0.476
- relative viability (NCI-H1792; first compound 0.8 µM): 0.542
- relative viability (NCI-H1792; first compound 2.53 µM): 0.469
- relative viability (NCI-H2009; first compound 0.08 µM): 0.426
- relative viability (NCI-H2009; first compound 0.253 µM): 0.37
- relative viability (NCI-H2009; first compound 0.8 µM): 0.404
- relative viability (NCI-H2009; first compound 2.53 µM): 0.395
- relative viability (NCI-H2023; first compound 0.08 µM): 0.232
- relative viability (NCI-H2023; first compound 0.253 µM): 0.195
- relative viability (NCI-H2023; first compound 0.8 µM): 0.241
- relative viability (NCI-H2023; first compound 2.53 µM): 0.228
- relative viability (NCI-H2085; first compound 0.08 µM): 0.535
- relative viability (NCI-H2085; first compound 0.253 µM): 0.554
- relative viability (NCI-H2085; first compound 0.8 µM): 0.542
- relative viability (NCI-H2085; first compound 2.53 µM): 0.572
- relative viability (NCI-H2170; first compound 0.08 µM): 0.481
- relative viability (NCI-H2170; first compound 0.8 µM): 0.484
- relative viability (NCI-H2170; first compound 2.53 µM): 0.406
- relative viability (NCI-H23; first compound 0.08 µM): 0.382
- relative viability (NCI-H23; first compound 0.253 µM): 0.293
- relative viability (NCI-H23; first compound 0.8 µM): 0.323
- relative viability (NCI-H23; first compound 2.53 µM): 0.387
- relative viability (NCI-H2405; first compound 0.08 µM): 0.799
- relative viability (NCI-H2405; first compound 0.253 µM): 0.734
- relative viability (NCI-H2405; first compound 0.8 µM): 0.758
- relative viability (NCI-H2405; first compound 2.53 µM): 0.645
- relative viability (NCI-H322M; first compound 0.08 µM): 0.654
- relative viability (NCI-H322M; first compound 0.253 µM): 0.655
- relative viability (NCI-H322M; first compound 0.8 µM): 0.567
- relative viability (NCI-H322M; first compound 2.53 µM): 0.726
- relative viability (NCI-H441; first compound 0.08 µM): 0.238
- relative viability (NCI-H441; first compound 0.8 µM): 0.251
- relative viability (NCI-H441; first compound 2.53 µM): 0.255
- relative viability (NCI-H650; first compound 0.08 µM): 0.356
- relative viability (NCI-H650; first compound 0.253 µM): 0.339
- relative viability (NCI-H650; first compound 0.8 µM): 0.302
- relative viability (NCI-H650; first compound 2.53 µM): 0.329
- relative viability (NCI-H727; first compound 0.08 µM): 0.867
- relative viability (NCI-H727; first compound 0.253 µM): 0.937
- relative viability (NCI-H727; first compound 0.8 µM): 0.838
- relative viability (NCI-H727; first compound 2.53 µM): 0.766
- relative viability (RERF-LC-KJ; first compound 0.08 µM): 0.713
- relative viability (RERF-LC-KJ; first compound 0.253 µM): 0.702
- relative viability (RERF-LC-KJ; first compound 0.8 µM): 0.66
- relative viability (RERF-LC-KJ; first compound 2.53 µM): 0.599
- relative viability (SK-MES-1; first compound 0.08 µM): 0.378
- relative viability (SK-MES-1; first compound 0.253 µM): 0.35
- relative viability (SK-MES-1; first compound 0.8 µM): 0.393
- relative viability (SK-MES-1; first compound 2.53 µM): 0.406
- relative viability (UMC-11; first compound 0.08 µM): 0.727
- relative viability (UMC-11; first compound 0.253 µM): 0.533
- relative viability (UMC-11; first compound 0.8 µM): 0.314
- relative viability (UMC-11; first compound 2.53 µM): 0.668
